pIC50: −log10 of the molar value. One block for each molecule: values may come before it.
Legend:
Siglec-2 (human CD22) = biological target: T1, Siglec-2 (human CD22) (Homo sapiens, UniProt P20273); assay: Hapten inhibition assay, Siglec-2 (human CD22); type: binding; details: for Siglec-2 (human CD22) rIP: quotient IC50 reference compound / IC50 compound; for pIC50: unit inferred
T1 sequence (P20273 20-138 limits assumed): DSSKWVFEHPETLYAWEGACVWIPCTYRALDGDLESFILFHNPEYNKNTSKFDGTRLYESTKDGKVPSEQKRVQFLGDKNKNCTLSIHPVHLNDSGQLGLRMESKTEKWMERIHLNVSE
Procedure: (§1) Preferably, the inhibition can be determined by a Hapten inhibition test. […] After overnight incubation at 4° C. the unbound complexes are removed by washing the cells and the bound radioactivity is determined. From the data obtained in this way, the concentrations are found which lead to 50% inhibition of the binding (IC50 values) (5, 6). Specially preferred during the Hapten inhibition test was 10 μl of the complex solution with an activity of 10^3 Bq ^125I mixed with the same volume of a solution of the substance to be investigated (concentrated three times) and incubated at 4° C. for one hour. Then followed the addition of 10 μl of a suspension of target cells, preferably 0.25 to 0.5% of human erythrocytes and incubation overnight at 4° C. The unbound radioactivity is removed by washing the cells five times with 200 μl of washing buffer, preferably phosphate-buffered saline with 0.1% (W/V) bovine serum albumin, and the cell-bound activity is determined with a γ-counter. […] The inhibition is determined in that the value without inhibitor is set to 0% and that with the sialidase-treated cells is set equal to 100%.
(§2) The IC50 value is the siglec inhibitor concentration which leads to 50% inhibition in the binding in the Hapten inhibition assay.

Siglec-1 (sialoadhesin) = Siglec-1 (sialoadhesin) (Mus musculus, UniProt Q62230); assay: Hapten inhibition assay, Siglec-1 (sialoadhesin); type: binding; details: for Siglec-1 (sialoadhesin) percentage in parentheses below the IC50 bound: at the concentration of the IC50 bound, meaning not defined in the patent; for IC50: bounds given in mM; for Siglec-1 (sialoadhesin) rIP: quotient IC50 reference compound / IC50 compound; for pIC50: unit inferred
Chain of Siglec-1 (sialoadhesin) (Q62230 20-136 limits assumed): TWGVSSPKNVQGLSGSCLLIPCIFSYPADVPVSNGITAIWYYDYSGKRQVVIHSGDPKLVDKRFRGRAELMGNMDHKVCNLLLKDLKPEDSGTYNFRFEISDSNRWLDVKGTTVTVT
Procedure: as §1, §2

Siglec-4a (MAG) = biological target: T2, Siglec-4a (MAG) (UniProt P20917); assay: Hapten inhibition assay, Siglec-4a (MAG); details: for Siglec-4a (MAG) rIP: quotient IC50 reference compound / IC50 compound; for pIC50: read-out: Siglec-4a (MAG) IC50, unit inferred
T2 sequence (P20917 1-627): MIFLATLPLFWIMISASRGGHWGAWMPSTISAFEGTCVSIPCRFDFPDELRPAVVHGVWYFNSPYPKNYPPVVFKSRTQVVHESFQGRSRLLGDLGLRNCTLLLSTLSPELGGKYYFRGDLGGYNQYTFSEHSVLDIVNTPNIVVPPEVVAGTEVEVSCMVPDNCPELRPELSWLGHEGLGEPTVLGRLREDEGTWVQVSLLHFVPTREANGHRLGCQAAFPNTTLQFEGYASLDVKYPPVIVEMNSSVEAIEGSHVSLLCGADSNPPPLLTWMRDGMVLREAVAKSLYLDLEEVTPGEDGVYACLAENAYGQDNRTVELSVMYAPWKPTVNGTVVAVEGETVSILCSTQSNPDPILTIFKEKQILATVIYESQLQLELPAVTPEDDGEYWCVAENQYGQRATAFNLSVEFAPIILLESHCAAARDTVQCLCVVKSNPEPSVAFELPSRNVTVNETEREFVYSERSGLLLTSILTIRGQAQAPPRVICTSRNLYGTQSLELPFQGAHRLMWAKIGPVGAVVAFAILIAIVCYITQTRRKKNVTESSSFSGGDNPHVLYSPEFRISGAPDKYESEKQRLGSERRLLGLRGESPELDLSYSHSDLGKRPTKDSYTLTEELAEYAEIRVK

Siglec-2 (murine CD22) = biological target: T3, Siglec-2 (murine CD22) (Mus musculus, UniProt P35329); assay: Hapten inhibition assay, Siglec-2 (murine CD22); type: binding; details: for Siglec-2 (murine CD22) rIP: quotient IC50 reference compound / IC50 compound; for pIC50: unit inferred
T3 sequence (P35329 22-148 limits assumed): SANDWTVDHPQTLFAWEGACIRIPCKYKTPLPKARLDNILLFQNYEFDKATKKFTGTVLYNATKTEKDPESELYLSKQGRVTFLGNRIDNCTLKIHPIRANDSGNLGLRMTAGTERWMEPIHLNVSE
Procedure: as §1, §2

Molecule: CCOc1c(N[C@H]2[C@H]([C@H](O)[C@H](O)CO)O[C@@](OC)(C(=O)O)C[C@@H]2O)c(=O)c1=O [Methyl-α-5-N-(etoxycylcobutendion)-neuraminic acid]
Siglec-2 (human CD22) rIP (Siglec-2 (human CD22)): 2.3
pIC50 (Siglec-2 (human CD22)): 3.03
Siglec-1 (sialoadhesin) percentage in parentheses below the IC50 bound (Siglec-1 (sialoadhesin)): (92%)
IC50 (Siglec-1 (sialoadhesin)): > 5 mM
Siglec-1 (sialoadhesin) rIP (Siglec-1 (sialoadhesin)): <<0.15
Siglec-4a (MAG) rIP (Siglec-4a (MAG)): 0.5
pIC50 (Siglec-4a (MAG)): 2.37
Siglec-2 (murine CD22) rIP (Siglec-2 (murine CD22)): 1.5
pIC50 (Siglec-2 (murine CD22)): 2.47

Molecule: CO[C@]1(C(=O)O)C[C@H](O)[C@@H](NC(C)=O)[C@H]([C@H](O)[C@H](O)CNC(=O)c2ccc([N+](=O)[O-])cc2[N+](=O)[O-])O1 [Methyl-α-9-N-(2,4-dinitrobenzoyl)-amino-9-desoxy-Neu5Ac]
Siglec-2 (human CD22) rIP (Siglec-2 (human CD22)): 7.7
pIC50 (Siglec-2 (human CD22)): 3.54
Siglec-1 (sialoadhesin) rIP (Siglec-1 (sialoadhesin)): 0.3
pIC50 (Siglec-1 (sialoadhesin)): 3.13
Siglec-4a (MAG) rIP (Siglec-4a (MAG)): 18
pIC50 (Siglec-4a (MAG)): 3.69
Siglec-2 (murine CD22) rIP (Siglec-2 (murine CD22)): 7.9
pIC50 (Siglec-2 (murine CD22)): 3.23

Molecule: CO[C@]1(C(=O)O)C[C@H](O)[C@@H](NC(C)=O)[C@H]([C@H](O)[C@H](O)CNC(=O)c2ccc(NC(C)=O)cc2)O1 [Methyl-α-9-N-(acetamidobenzoyl)-amino-9-desoxy-Neu5Ac]
Siglec-2 (human CD22) rIP (Siglec-2 (human CD22)): 2.4
pIC50 (Siglec-2 (human CD22)): 3.24
Siglec-1 (sialoadhesin) rIP (Siglec-1 (sialoadhesin)): 3.0
pIC50 (Siglec-1 (sialoadhesin)): 3.53
Siglec-4a (MAG) rIP (Siglec-4a (MAG)): 77
pIC50 (Siglec-4a (MAG)): 4.21
pIC50 (Siglec-2 (murine CD22)): 2.99

Molecule: CO[C@]1(C(=O)O)C[C@H](O)[C@@H](NC(C)=O)[C@H]([C@H](O)[C@H](O)CNC(=O)c2ccccc2-c2ccccc2)O1 [Methyl-α-9-N-(biphenyl-2-carbonyl)-amino-9-desoxy-Neu5Ac]
Siglec-2 (human CD22) rIP (Siglec-2 (human CD22)): 10
pIC50 (Siglec-2 (human CD22)): 4.01
Siglec-1 (sialoadhesin) rIP (Siglec-1 (sialoadhesin)): 0.3
pIC50 (Siglec-1 (sialoadhesin)): 2.59
Siglec-2 (murine CD22) rIP (Siglec-2 (murine CD22)): 9.5
pIC50 (Siglec-2 (murine CD22)): 3.19

Molecule: CO[C@]1(C(=O)O)C[C@H](O)[C@@H](NC(C)=O)[C@H]([C@H](O)[C@H](O)CNC(=O)Cc2ccc(-c3ccccc3)cc2)O1 [Methyl-α-9-N-(biphenyl-4-acetyl)-amino-9-desoxy-Neu5Ac]
Siglec-2 (human CD22) rIP (Siglec-2 (human CD22)): 29
pIC50 (Siglec-2 (human CD22)): 4.46
Siglec-1 (sialoadhesin) rIP (Siglec-1 (sialoadhesin)): 0.3
pIC50 (Siglec-1 (sialoadhesin)): 2.52
Siglec-2 (murine CD22) rIP (Siglec-2 (murine CD22)): 48
pIC50 (Siglec-2 (murine CD22)): 3.91

Molecule: CO[C@]1(C(=O)O)C[C@H](O)[C@@H](NC(C)=O)[C@H]([C@H](O)[C@H](O)CNC(=O)C(c2ccccc2)c2ccccc2)O1 [Methyl-α-9-N-(diphenylacetyl)-amino-9-desoxy-Neu5Ac]
pIC50 (Siglec-2 (human CD22)): 4.46
Siglec-1 (sialoadhesin) rIP (Siglec-1 (sialoadhesin)): 0.2
pIC50 (Siglec-1 (sialoadhesin)): 2.36
Siglec-4a (MAG) rIP (Siglec-4a (MAG)): 31
pIC50 (Siglec-4a (MAG)): 3.82
pIC50 (Siglec-2 (murine CD22)): 3.99

Molecule: CO[C@]1(C(=O)O)C[C@H](O)[C@@H](NC(C)=O)[C@H]([C@H](O)[C@H](O)CNC(=O)c2cccc3ccccc23)O1 [Methyl-α-9-N-(naphthyl-1-carbonyl)-amino-9-desoxy-Neu5Ac]
Siglec-2 (human CD22) rIP (Siglec-2 (human CD22)): 27
pIC50 (Siglec-2 (human CD22)): 4.43
Siglec-1 (sialoadhesin) rIP (Siglec-1 (sialoadhesin)): 0.3
pIC50 (Siglec-1 (sialoadhesin)): 2.52
Siglec-4a (MAG) rIP (Siglec-4a (MAG)): 84
pIC50 (Siglec-4a (MAG)): 4.25
Siglec-2 (murine CD22) rIP (Siglec-2 (murine CD22)): 64
pIC50 (Siglec-2 (murine CD22)): 4.04

Molecule: CO[C@]1(C(=O)O)C[C@H](O)[C@@H](NC(C)=O)[C@H]([C@H](O)[C@H](O)CNC(=O)Cc2ccc3ccccc3c2)O1 [Methyl-α-9-N-(naphthyl-2-acetyl)-amino-9-desoxy-Neu5Ac]
Siglec-2 (human CD22) rIP (Siglec-2 (human CD22)): 131
pIC50 (Siglec-2 (human CD22)): 5.10
Siglec-1 (sialoadhesin) rIP (Siglec-1 (sialoadhesin)): 0.5
pIC50 (Siglec-1 (sialoadhesin)): 2.76
Siglec-4a (MAG) rIP (Siglec-4a (MAG)): 13
pIC50 (Siglec-4a (MAG)): 3.44
Siglec-2 (murine CD22) rIP (Siglec-2 (murine CD22)): 83
pIC50 (Siglec-2 (murine CD22)): 4.15

Further molecules by rising pIC50 (Siglec-2 (human CD22)), results first:

Siglec-2 (human CD22) rIP (Siglec-2 (human CD22)): 1.0
pIC50 (Siglec-2 (human CD22)): 2.99
Siglec-2 (murine CD22) rIP (Siglec-2 (murine CD22)): 8.3
pIC50 (Siglec-2 (murine CD22)): 3.15
Molecule: CO[C@]1(C(=O)O)C[C@H](O)[C@@H](NC(=O)CO)[C@H]([C@H](O)[C@H](O)CO)O1 [Methyl-α-5-N-glycolyl-neuraminic acid]

Siglec-2 (human CD22) rIP (Siglec-2 (human CD22)): 4.9
pIC50 (Siglec-2 (human CD22)): 3.47
Siglec-1 (sialoadhesin) rIP (Siglec-1 (sialoadhesin)): 0.5
pIC50 (Siglec-1 (sialoadhesin)): 3.12
Siglec-4a (MAG) rIP (Siglec-4a (MAG)): 28
pIC50 (Siglec-4a (MAG)): 3.79
Siglec-2 (murine CD22) rIP (Siglec-2 (murine CD22)): 7.4
pIC50 (Siglec-2 (murine CD22)): 3.19
Molecule: COC1(C(=O)O)CC(O)C(NC(C)=O)C(C(O)C(O)CNC(=O)c2cccc3cc4ccccc4cc23)O1 (stereo not drawn) [Methyl-α-9-N-(anthracen-5-carbonyl)-amino-9-desoxy-Neu5Ac]

Siglec-2 (human CD22) rIP (Siglec-2 (human CD22)): 5.7
pIC50 (Siglec-2 (human CD22)): 3.74
Siglec-2 (murine CD22) rIP (Siglec-2 (murine CD22)): 7.4
pIC50 (Siglec-2 (murine CD22)): 3.21
Molecule: Methyl-α-9-N-(cyclobutendion)-amino-9-desoxy-Neu5Ac

Siglec-2 (human CD22) rIP (Siglec-2 (human CD22)): 19
pIC50 (Siglec-2 (human CD22)): 3.92
Siglec-1 (sialoadhesin) rIP (Siglec-1 (sialoadhesin)): 8.4
pIC50 (Siglec-1 (sialoadhesin)): 4.38
Siglec-4a (MAG) rIP (Siglec-4a (MAG)): 393
pIC50 (Siglec-4a (MAG)): 4.92
Siglec-2 (murine CD22) rIP (Siglec-2 (murine CD22)): 7.4
pIC50 (Siglec-2 (murine CD22)): 3.18
Molecule: COc1ccc(C(=O)NC[C@@H](O)[C@@H](O)[C@@H]2O[C@@](OC)(C(=O)O)C[C@H](O)[C@H]2NC(C)=O)cc1 [Methyl-α-9-N-(4-methoxybenzoyl)-amino-9-desoxy-Neu5Ac]

Siglec-2 (human CD22) rIP (Siglec-2 (human CD22)): 19
pIC50 (Siglec-2 (human CD22)): 4.14
Siglec-1 (sialoadhesin) rIP (Siglec-1 (sialoadhesin)): 1.7
pIC50 (Siglec-1 (sialoadhesin)): 3.28
Siglec-4a (MAG) rIP (Siglec-4a (MAG)): 166
pIC50 (Siglec-4a (MAG)): 4.55
pIC50 (Siglec-2 (murine CD22)): 2.83
Molecule: CO[C@]1(C(=O)O)C[C@H](O)[C@@H](NC(C)=O)[C@H]([C@H](O)[C@H](O)CNC(=O)c2cc(O)cc(O)c2)O1 [Methyl-α-9-N-(3,5-dihydroxybenzoyl)-amino-9-desoxy-Neu5Ac]

pIC50 (Siglec-2 (human CD22)): 4.39
Siglec-1 (sialoadhesin) percentage in parentheses below the IC50 bound (Siglec-1 (sialoadhesin)): (100%)
IC50 (Siglec-1 (sialoadhesin)): > 2.5 mM
Siglec-1 (sialoadhesin) rIP (Siglec-1 (sialoadhesin)): <<0.2
Siglec-4a (MAG) rIP (Siglec-4a (MAG)): 54
pIC50 (Siglec-4a (MAG)): 4.06
Siglec-2 (murine CD22) percentage in parentheses below the IC50 bound (Siglec-2 (murine CD22); at the concentration of the IC50 bound, meaning not defined in the patent): (100%)
IC50 (Siglec-2 (murine CD22); bounds given in mM): > 10 mM
Molecule: COC1(C(=O)O)CC(O)C(NC(C)=O)C(C(O)C(O)CNC(=O)c2ccc3ccccc3n2)O1 (stereo not drawn) [Methyl-α-9-N-(chinaldine-2-carbonyl)-amino-9-desoxy-Neu5Ac]

Siglec-2 (human CD22) rIP (Siglec-2 (human CD22)): 111
pIC50 (Siglec-2 (human CD22)): 5.00
Siglec-1 (sialoadhesin) rIP (Siglec-1 (sialoadhesin)): 1.5
pIC50 (Siglec-1 (sialoadhesin)): 3.27
Siglec-2 (murine CD22) rIP (Siglec-2 (murine CD22)): 6.7
pIC50 (Siglec-2 (murine CD22)): 3.05
Molecule: COC1(C(=O)O)CC(O)C(NC(C)=O)C(C(O)C(O)CNC(=O)c2cccc(Oc3ccccc3)c2)O1 (stereo not drawn) [Methyl-α-9-N-(phenoxy-3-benzoyl)-amino-9-desoxy-Neu5Ac]

Siglec-2 (human CD22) rIP (Siglec-2 (human CD22)): 167
pIC50 (Siglec-2 (human CD22)): 5.22
Siglec-1 (sialoadhesin) rIP (Siglec-1 (sialoadhesin)): 12
pIC50 (Siglec-1 (sialoadhesin)): 4.11
Siglec-4a (MAG) rIP (Siglec-4a (MAG)): 236
pIC50 (Siglec-4a (MAG)): 4.70
binds stronger to siglec-4a than the reference compound (Siglec-4a (MAG); relative to 2-alpha-methyl-5-N-acetyl-neuraminic acid): approx. 236 times
Siglec-2 (murine CD22) rIP (Siglec-2 (murine CD22)): 18
pIC50 (Siglec-2 (murine CD22)): 3.57
Molecule: COC1(C(=O)O)CC(O)C(NC(C)=O)C(C(O)C(O)CNC(=O)c2ccc3ccccc3c2)O1 (stereo not drawn) [Methyl-α-9-N-(naphthyl-2-carbonyl)-amino-9-desoxy-Neu5Ac]
